According to patent publication US20230337671A1, “DISINFECTANT COMPOSITION” (Helperby Therapeutics Limited, priority 2020, published 2023):

How the values were obtained:
Format in all cases: physicochemical
[1] = Contact angle of a drop on the surface of parafilm (DataPhysics OCA 35); details: 0.03% w/w solution
Description: To support the use of a low concentration of HT61 acting as an emollient in an aqueous disinfectant composition, the surface tension, contact angle and hydrophilic lipophilic balance (HLB) of this compound were determined. • Sample Preparation: A 0.03% w/w solution was required for both the contact angle and surface tension measurements. This solution was prepared by adding 0.075 g of the HT61 solid (obtained according to the method set out in WO 2007/054693 A1 discussed above) to 250 ml of demineralised water. Some solid remained in solution so analysis was carried out using UV-Vis Spectroscopy. […] The surface tension of the sample was measured using a DataPhysics DCAT 9 tensionmeter and the Wilhelmy plate method. The measurement was made three times, with the plate being cleaned between each measurement. • The contact angle was measured on the surface of parafilm. A sample of parafilm was wrapped around a glass slide and the protective film removed. The contact angle of the liquid with the parafilm was measured by placing a small (e.g. 2 μl) drop of test liquid (the sample) on the test surface. The profile of the drop was measured as a function of time using a DataPhysics OCA 35. Each liquid was measured three times. The contact angles were determined 2 s, 12 s and 30 s after the drop first touched the surface. For reference, the contact angle of demineralised water was also measured. • The HLB Value was obtained using […] mathematical method (Griffin, W.C., Calculation of HLB Values of Non-Ionic Surfactants, Journal of the Society of Cosmetic Chemists, 1954, 5(4), 249-56): • [formula] • where Mh is the molecular weight of hydrophilic groups (44 gmol^-1) and M is the molecular weight of the whole molecule (380 gmol^-1). • The factor 20 is a scaling factor. Thus a scale of 1 to 20 is generally obtained.

[2] = Preparation of 0.03% w/w HT61 solution in demineralised water, UV-Vis check; details: 0.075 g HT61 solid added to 250 ml demineralised water (0.03% w/w)
Description: (§1) To support the use of a low concentration of HT61 acting as an emollient in an aqueous disinfectant composition, the surface tension, contact angle and hydrophilic lipophilic balance (HLB) of this compound were determined. • Sample Preparation: A 0.03% w/w solution was required for both the contact angle and surface tension measurements. This solution was prepared by adding 0.075 g of the HT61 solid (obtained according to the method set out in WO 2007/054693 A1 discussed above) to 250 ml of demineralised water. Some solid remained in solution so analysis was carried out using UV-Vis Spectroscopy. […] The surface tension of the sample was measured using a DataPhysics DCAT 9 tensionmeter and the Wilhelmy plate method. The measurement was made three times, with the plate being cleaned between each measurement. • The contact angle was measured on the surface of parafilm. A sample of parafilm was wrapped around a glass slide and the protective film removed. The contact angle of the liquid with the parafilm was measured by placing a small (e.g. 2 μl) drop of test liquid (the sample) on the test surface. The profile of the drop was measured as a function of time using a DataPhysics OCA 35. Each liquid was measured three times. The contact angles were determined 2 s, 12 s and 30 s after the drop first touched the surface. […]

[3] = Surface tension, Wilhelmy plate method (DataPhysics DCAT 9 tensionmeter); details: 0.03% w/w HT61 in demineralised water, assumed saturated; measured three times
Description: as §1

Average Contact Angle @2s ([1]; 2 s after drop touched surface): 98
Average Contact Angle @12s ([1]; 12 s after drop touched surface): 96
Average Contact Angle @30s ([1]; 30 s after drop touched surface): 96
Dissolution of HT61 solid in demineralised water [2]: the solution was saturated
Average Surface Tension [3]: 55.7 mN/m
Structure (SMILES): Cc1nc2ccc(Oc3ccccc3)cc2c2c1CCN2CCc1ccccc1 [HT61, 4-methyl-8-phenoxy-1-(2-phenylethyl)-2,3-dihydro-1H-pyrrolo[3,2-c]quinoline]
